“Also recorded” adds a separate entry of the source.
Legend:
PTPμ = PTPμ (Homo sapiens, UniProt P28827); test: PTPμ-dependent Sf9 aggregation assay; assay type: cell-based; conditions: 100 μM; 20 min pretreatment; in words
Gli36 cells = test: Gli36 glioma sphere formation and growth assay; assay type: cell-based, human; conditions: for Effect on Gli36 sphere formation: day 1; for Effect on Gli36 sphere formation / Effect on Gli36 sphere growth: in words
Method: FIGS. 6(A-E) illustrate a histogram and images showing the results of the Gli36 sphere formation and growth assays. Selected inhibitors, activators, and control compounds identified in LN229 and/or U87 scratch wound closure assays were retested at 100 μM in a secondary assay for glioma cell (Gli36) sphere formation and growth. A. Histogram showing the effects of the indicated compounds on Day 1 sphere footprint areas. Footprint areas were measured and normalized to the average footprint area of the unblinded DMSO-treated controls. On day 1, a larger footprint area indicates inhibition of aggregation. B. Histogram showing the effects of the indicated compounds on sphere growth. Changes in sphere footprint areas were calculated and normalized to the average size change of the unblinded vehicle-treated controls. On day 7, a smaller value indicates reduced growth. […] Data is presented as percentages±s.e.m. of 2-4 replicates. Representative images of samples treated with DMSO (C) and two priority inhibitors (D and E) are shown. Relative day 1 footprint areas and day 7 growth measurements are indicated for each example.
Cells were seeded at a density of 7500 cells per well into the internal wells of 96-well plates coated with 0.75% (wt/vol) PVA as previously described. Compounds were added (2×replicates per treatment) at the indicated final concentrations, and control wells were treated with matching concentrations of DMSO. The external wells of the plates were filled with PBS to buffer against edge effects, and the cells were incubated at 37 °C and 5% CO2 for 7 days. A Leica CTR6500 microscope fitted with an automated stage was used to capture brightfield images on day 1 and day 7, and sphere footprint areas were measured using Image J (v1.52a http://imagej.nih.gov/ij) as previously described. To quantify the effects of the compounds on day 1, the footprint areas of the treated wells were normalized to the average area of the matched DMSO control wells. To quantify the effects of the compounds on sphere growth, the change in the sphere footprint areas was calculated ([…]) and then normalized to the average size change of the matched DMSO samples. All values are presented as average percentages±s.e.m.

parental Sf9 cells = test: Helix Blue staining of parental Sf9 cells (cell survival); assay type: cell-based, insect; conditions: 100 μM, 24 h, cells lack PTPμ
Method: (§1) FIG. 17 illustrates images showing the effects of prioritized inhibitors on cell survival. LN229 cells were plated onto non-adherent surfaces and cultured in the presence of the indicated compounds (100 μM). On day 1, spheres were stained with Helix Blue to detect dying cells. Parental Sf9 cells (which lack PTPμ) plated onto tissue culture plastic were also grown in the presence of the indicated compounds and, on day 1, stained with Helix Blue. Three compounds appeared to cause a qualitative increase in staining in LN229 spheres. No compound was toxic to Sf9 cells.
(§2) LN229 cells, plated onto non-adherent surfaces as described above, and parental Sf9 cells (without PTPμ), seeded into 96-well flat bottom tissue culture plates, were treated for 24 h with the indicated compounds (100 μM). The cells and spheres were then treated with 5.5 μM Helix Blue (Biolegend, San Diego, CA) and imaged at 10× on a Leica CTR6500 fluorescence microscope.
(§3) The seven penetrant inhibitors were tested to see if they affected the survival of LN229 spheres and parental Sf9 cells (which lack PTPμ) (FIG. 17).

LN229 cells [1] = test: LN229 scratch wound healing assay; assay type: cell-based, human; conditions: for activity at 100 µM: Homo sapiens, LN-229, normalized to DMSO controls, read-out: LN229 scratch wound closure relative to DMSO controls
Text: FIGS. 3(A-D) illustrate a histogram and images of the LN229 scratch wound assays. A. Histogram showing the effects of all soluble wedge-targeted compounds on LN229 scratch wound closure. Cell movement into the scratches was quantified from scratch wound widths at the start and end of the assay and normalized to the average movement of cells in the unblinded DMSO control samples. Data is presented as average percentages±standard error of the means (s.e.m.), and compound bar codes are shown on the x-axis. The majority of compounds were screened with an n=2. Some priority compounds were screened with 3-6 replicates. Representative endpoint images of samples treated with DMSO (B) and two priority inhibitors (C and D) are shown. The relative migration distances for each example are indicated.
Cells were seeded at a density of 2.7×10^4 cells per well into the internal wells of Incuyte1 Imagelock 96-well plates (Essen BioScience Inc., Ann Arbor, MI) and cultured overnight to form monolayers. Monolayers were wounded with an IncuCyte1 96-well Woundmaker Tool per the manufacturer's instructions. The outer wells were filled with PBS to buffer edge effects, and then the wounded monolayers were cultured in 100 μl of fresh media with compounds or DMSO (2×replicates at 100 μM or 1%, respectively) at 37 °C and 5% CO2. Images were captured every 4 hrs. using an Incucyte live cell imaging system equipped with the Scratch Wound Module. Scratch wound widths were calculated, per the manufacturer's instructions, at TO and at endpoint (typically T12 for LN229 and U87 cells and T8 for Gli36), which was taken as the last timepoint before wound closure. The cell migration distance was calculated from scratch widths [(T0Width−TendpointWidth)/2] and normalized to the average distance migrated by the DMSO controls. Values are presented as average percentages±standard errors of the means (s.e.m.). The majority of compounds were screened with an n of two, but the n for priority hits ranges from 2-6.
Scratch assays measure the ability of cells to migrate into a wound and close it creating a monolayer.

LN229 cells [2] = test: Helix Blue staining of LN229 spheres (cell survival); assay type: cell-based, human; conditions: 100 μM, 24 h, qualitative
Method: as §1, §2, §3

PTPμ, sequence (P28827 21-1452): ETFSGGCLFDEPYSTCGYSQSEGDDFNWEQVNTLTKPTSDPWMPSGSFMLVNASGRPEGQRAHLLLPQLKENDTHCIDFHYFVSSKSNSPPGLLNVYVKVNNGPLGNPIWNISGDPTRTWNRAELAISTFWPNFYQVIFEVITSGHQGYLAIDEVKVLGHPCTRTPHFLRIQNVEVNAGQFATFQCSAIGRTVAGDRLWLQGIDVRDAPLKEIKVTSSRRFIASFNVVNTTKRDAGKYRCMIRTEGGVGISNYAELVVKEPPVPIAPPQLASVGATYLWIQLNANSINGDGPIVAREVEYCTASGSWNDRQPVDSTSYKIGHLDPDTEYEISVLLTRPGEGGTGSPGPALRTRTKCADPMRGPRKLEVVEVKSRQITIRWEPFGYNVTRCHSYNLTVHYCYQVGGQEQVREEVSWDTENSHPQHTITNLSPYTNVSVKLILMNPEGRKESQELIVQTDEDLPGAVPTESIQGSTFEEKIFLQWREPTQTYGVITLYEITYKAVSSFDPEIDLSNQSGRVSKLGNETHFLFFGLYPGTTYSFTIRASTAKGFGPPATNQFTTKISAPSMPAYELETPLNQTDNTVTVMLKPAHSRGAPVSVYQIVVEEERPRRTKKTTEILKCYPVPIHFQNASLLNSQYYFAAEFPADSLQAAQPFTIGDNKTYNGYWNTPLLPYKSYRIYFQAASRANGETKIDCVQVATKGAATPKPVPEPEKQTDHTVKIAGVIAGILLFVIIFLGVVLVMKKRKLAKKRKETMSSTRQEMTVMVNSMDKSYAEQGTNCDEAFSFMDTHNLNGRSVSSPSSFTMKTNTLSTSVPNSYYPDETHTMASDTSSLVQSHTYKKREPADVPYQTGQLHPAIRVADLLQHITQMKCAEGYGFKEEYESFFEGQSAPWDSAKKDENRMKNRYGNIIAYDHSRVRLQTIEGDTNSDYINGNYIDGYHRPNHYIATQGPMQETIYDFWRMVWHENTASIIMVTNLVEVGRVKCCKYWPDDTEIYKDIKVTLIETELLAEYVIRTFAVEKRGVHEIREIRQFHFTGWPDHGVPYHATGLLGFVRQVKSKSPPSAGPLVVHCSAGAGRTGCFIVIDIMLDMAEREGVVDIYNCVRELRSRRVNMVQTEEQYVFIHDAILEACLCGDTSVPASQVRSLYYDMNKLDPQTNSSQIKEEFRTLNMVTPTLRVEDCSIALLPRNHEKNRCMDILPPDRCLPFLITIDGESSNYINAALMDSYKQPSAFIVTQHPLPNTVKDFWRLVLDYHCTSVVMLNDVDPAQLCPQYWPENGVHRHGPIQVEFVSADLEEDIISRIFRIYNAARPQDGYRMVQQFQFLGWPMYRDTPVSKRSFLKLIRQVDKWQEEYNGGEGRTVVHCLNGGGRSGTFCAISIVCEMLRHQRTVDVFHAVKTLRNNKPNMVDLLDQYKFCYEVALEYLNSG

COc1cc(C)ccc1OCC(=O)Nc1nc(-c2c[nH]c(C(N)=O)c2)cs1 [Compound 247678835] was tested, and the “Effect on PTPμ-dependent Sf9 aggregation / adhesion” value (PTPμ) was “PTPμ-dependent adhesion; also recorded: inhibitors; also recorded: fewer/smaller aggregates; also recorded: strongest pan-inhibitor to affect PTPμ-dependent aggregation; also recorded: affect PTPμ-mediated aggregation”, the “Effect on Gli36 sphere formation” value (Gli36 cells; 100 μM) was “slowed aggregation of Gli36 cells” and the Gli36 sphere appearance (Gli36 cells; 100 μM, day 7) was “more optically translucent than control spheres on Day 7”. The “Effect on Gli36 sphere growth” value (Gli36 cells; 100 μM, day 7) was “grew poorly”, the “Effect on parental Sf9 cell survival” value (parental Sf9 cells) was “did not affect parental Sf9 cells” and the “Effect on LN229 cell morphology in scratch assay” value (“Effect on LN229 cell morphology” for short) (LN229 cells [1]; 100 μM) was “rounded with no ruffles”. The “Effect on LN229 scratch wound closure / migration” value (LN229 cells [1]; 100 μM, in words) was “completely blocked the movement of cells into the scratch; also recorded: strongest inhibitor identified in the initial screen of LN229 migration”, the activity at 100 µM (LN229 cells [1]) was < 60% and the “Effect on LN229 cell survival / cell death” value (LN229 cells [2]) was “caused a qualitative increase in LN229-cell death; also recorded: induced LN229-cell death in vitro; also recorded: affect the survival of LN229 cells”.

In the case of CCN(C(=O)CN1C(=O)NC(C)(CCC(C)C)C1=O)c1cccc2ccccc12 (stereo not shown) [Compound 247677616], the “Effect on PTPμ-dependent Sf9 aggregation / adhesion” value (PTPμ) is reported as “not shown to affect PTPμ-mediated aggregation; also recorded: did not affect PTPμ-dependent adhesion”, the “Effect on Gli36 sphere formation” value (Gli36 cells; 100 μM) is reported as “completely blocked Gli36 sphere formation; also recorded: fell apart on day 1” and the activity at 100 µM (Gli36 cells; Homo sapiens, GLI36, 168 h, read-out: Gli36 sphere growth (indicated value; sample fell apart on day 1), growth could not be calculated, indicated as '0' growth) is reported as 0%. For the same molecule, the “Effect on parental Sf9 cell survival” value (parental Sf9 cells) was “did not affect parental Sf9 cells”, the “Effect on LN229 cell morphology” value (LN229 cells [1]; 100 μM) was “rounding” and the activity at 100 µM (LN229 cells [1]) was < 60%. The “Effect on LN229 cell survival / cell death” value (LN229 cells [2]) was “caused a qualitative increase in LN229-cell death; also recorded: causing LN229 cell death”.

In the case of O=C(NCc1nc(-c2ccncc2)no1)c1ccc(Cl)c(S(=O)(=O)NCc2ccccc2)c1 [Compound 247678791], the “Effect on PTPμ-dependent Sf9 aggregation / adhesion” value (PTPμ) is reported as “PTPμ-dependent adhesion; also recorded: inhibitors; also recorded: fewer/smaller aggregates; also recorded: affect PTPμ-mediated aggregation”, the “Effect on Gli36 sphere formation” value (Gli36 cells; 100 μM) is reported as “slowed condensation of Gli36 cells” and the “Effect on Gli36 sphere growth” value (Gli36 cells; 100 μM, day 7) is reported as “grew more slowly than controls”. For the same molecule, the “Effect on LN229 cell morphology” value (LN229 cells [1]; 100 μM) was “subtle effects on the morphology of LN229 cells”, the activity at 100 µM (LN229 cells [1]) was < 60% and the “Effect on LN229 cell survival / cell death” value (LN229 cells [2]) was “did not affect LN229 survival”.

Reference: US20260355168A1, “COMPOSITIONS AND METHODS FOR TREATING AND DETECTING CANCER” (CASE WESTERN RESERVE UNIVERSITY, priority 2022, published 2026)
